Measurements reported in PubChem BioAssay (NCI).
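48-hour exposure; five concentrations; linearly interpolated endpoints. TGI denotes the concentration required for complete inhibition of growth.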 Where a SMILES comes first, the peptide text is derived from it. The star is where a group is joined. Cbz = O=C(OCc1ccccc1)*

How the values were obtained:
Assay in all cases: growth of human tumour cells (NCI), 48 h
HS 578T breast = test system: HS 578T breast
OVCAR-5 ovarian = test system: OVCAR-5 ovarian
RXF 393 renal = test system: RXF 393 renal
PC-3 prostate = test system: PC-3 prostate
SK-MEL-2 melanoma = test system: SK-MEL-2 melanoma
OVCAR-3 ovarian = test system: OVCAR-3 ovarian
OVCAR-4 ovarian = test system: OVCAR-4 ovarian
SW-620 colon = test system: SW-620 colon
M14 melanoma = test system: M14 melanoma
NCI/ADR-RES ovarian = test system: NCI/ADR-RES ovarian
A549 NSCLC = test system: A549 NSCLC
TK-10 renal = test system: TK-10 renal
EKVX NSCLC = test system: EKVX NSCLC
T-47D breast = test system: T-47D breast
HOP-92 NSCLC = test system: HOP-92 NSCLC
SK-OV-3 ovarian = test system: SK-OV-3 ovarian
SK-MEL-5 melanoma = test system: SK-MEL-5 melanoma
MDA-N = test system: MDA-N
MALME-3M melanoma = test system: MALME-3M melanoma

SMILES	TGI (HS 578T breast) [µM]	TGI (OVCAR-5 ovarian) [µM]	TGI (RXF 393 renal) [µM]	TGI (PC-3 prostate) [µM]	TGI (SK-MEL-2 melanoma) [µM]	TGI (OVCAR-3 ovarian) [µM]	TGI (OVCAR-4 ovarian) [µM]	TGI (SW-620 colon) [µM]	TGI (M14 melanoma) [µM]	TGI (NCI/ADR-RES ovarian) [µM]	TGI (A549 NSCLC) [µM]	TGI (TK-10 renal) [µM]	TGI (EKVX NSCLC) [µM]	TGI (T-47D breast) [µM]	TGI (HOP-92 NSCLC) [µM]	TGI (SK-OV-3 ovarian) [µM]	TGI (SK-MEL-5 melanoma) [µM]	TGI (MDA-N) [µM]	TGI (MALME-3M melanoma) [µM]
O=Cc1ccc(-c2cccc([N+](=O)[O-])c2)s1	> 100	> 100	> 100	> 100	> 100	> 100	> 100	> 100	> 100	> 100	> 100	> 100	> 100	> 100	> 100	> 100	> 100	–	–
Nc1ccccc1OCc1cc(=O)c(OCc2ccccc2)co1	–	> 100	–	> 100	–	> 100	> 100	> 100	> 100	> 100	> 100	61.2	> 100	> 100	36.4	83.7	> 100	> 100	> 100
CCSC(=O)/C=C1\CN(C(=O)OC(C)(C)C)C1C(=O)OC(C)(C)C (stereo not given)	19.4	14.3	3.76	18.1	18.4	6.13	7.44	4.1	3.98	> 23.7	26.4	6.39	26	13.4	8.4	28.2	12.6	–	4.42
COc1ccc([C@H](NC(=O)c2ccccc2)[C@@H](O)C(=O)O[C@H]2C[C@@]3(O)C(OC(=O)c4ccccc4)C4[C@](C)(C(=O)[C@H](OC(C)=O)C(=C2C)C3(C)C)[C@@H](O)C[C@H]2OC[C@@]42OC(C)=O)cc1 (stereo not given in full)	0.0122	> 10	> 10	–	> 10	–	> 10	> 10	> 10	> 10	> 10	> 10	> 10	> 10	> 10	–	> 10	> 10	> 10
COC(=O)CC1(O)C(/C=C/c2ccccc2)C(C(=O)OC)C(=O)C(C(=O)OC)C1C(=O)OC (stereo not given)	> 100	> 100	> 100	> 100	> 100	> 100	> 100	> 100	> 100	> 100	> 100	> 100	> 100	–	> 100	> 100	> 100	> 100	> 100
CC(=O)OCC1OC(n2c(C)c(C(C)=O)c(-c3cccc4ccccc34)c(C#N)c2=S)C(OC(C)=O)C(OC(C)=O)C1OC(C)=O (stereo not given)	–	> 100	> 100	> 100	> 100	> 100	> 100	> 100	> 100	> 100	> 100	> 100	> 100	> 100	> 100	> 100	> 100	> 100	> 100
CC(C)CCCC(C)[C@H]1CC[C@H]2[C@@H]3CC[C@H]4C[C@@H](CCC=C(c5cc(Cl)c(O)c(C(=O)O)c5)c5cc(Cl)c(O)c(C(=O)O)c5)CC[C@]4(C)[C@H]3CC[C@]12C (stereo not given in full) (tested in a mixture with another compound)	> 50	> 50	> 50	> 50	> 50	> 50	> 50	> 50	> 50	> 50	> 50	> 50	> 50	> 50	> 50	> 50	> 50	–	> 50
CC(C)(C)[Si](C)(C)OCC#C[C@@]1(O)CCCCC1CC(Sc1ccccc1)Sc1ccccc1 (stereo not given in full)	–	27.2	27.1	26.3	31.7	26.4	29.2	31.7	35.5	39	28	31.8	30	25.5	37.4	34.4	29.2	37.7	32.3
Cc1cc(C)c(NS(=O)c2cccc(Cl)c2)c(C)c1 (stereo not given)	–	> 100	> 100	> 100	–	> 100	–	> 100	> 100	> 100	> 100	> 100	> 100	–	> 100	–	–	> 100	> 100
O=CC1C[C@@H](N2C(=O)O[C@@H](c3ccccc3)[C@H]2c2ccccc2)[C@@H]1COCc1ccccc1 (stereo not given in full)	72.3	52.3	46.3	43.1	30.8	36.4	> 100	77.1	34.2	83.6	> 100	44.5	43.2	–	30.3	–	29.1	38.1	31.5
Cc1ccc(S(=O)(=O)NC2=NS(=O)(=O)c3cc(C)c(Cl)cc3S2)cc1	> 100	> 100	> 100	> 100	> 100	> 100	> 100	> 100	> 100	> 100	> 100	> 100	> 100	> 100	> 100	> 100	> 100	–	> 100
CC(C)(C)N(Cc1ccoc1)C(=O)/C=C\S(=O)c1ccccc1 (stereo not given)	68	59.2	–	27.8	39.6	26.2	> 100	32	40	56.2	> 100	> 100	75.5	38.2	34.4	77.6	27.4	44.2	–
COc1cc(C2c3cc4c(cc3OC(NCc3ccccc3)C2C)OCO4)cc(OC)c1OC (stereo not given)	–	> 100	–	–	> 66.6	3.1	> 100	> 36	67.1	0.723	> 94	> 100	> 100	–	20.3	> 35.3	1.78	–	0.671
CN(C)/C=C/c1ccncc1	–	> 100	> 100	> 100	> 100	> 100	> 100	> 100	> 100	> 100	> 100	> 100	> 100	> 100	> 100	> 100	> 100	> 100	> 100
Clc1ccccc1-c1nnc2c(-c3ccccc3)nc3ccccc3n12	–	> 100	> 100	> 100	> 100	> 100	> 100	> 100	> 100	> 100	> 100	> 100	> 100	69.2	> 100	> 100	> 100	> 100	> 100
O=C(CN1CCOCC1)Nc1ccc2c(c1)C1Oc3ccccc3CC1CO2 (stereo not given)	–	> 100	–	> 100	> 100	> 100	–	> 100	> 100	> 100	> 100	> 100	> 100	> 100	> 100	> 100	> 100	> 100	> 100
O=S1c2ccccc2SCSc2ccccc21	–	> 100	> 100	> 100	> 100	> 100	> 100	–	> 100	> 100	> 100	> 100	–	> 100	> 100	> 100	> 100	> 100	> 100
C/C(=N/NC(=S)NCCc1ccccn1)c1cnccn1	> 100	> 100	–	> 100	> 100	> 100	> 100	> 100	> 100	–	> 100	> 100	> 100	> 100	> 100	70.5	> 100	> 100	> 100
O=C(Cc1ccccc1)NNc1nc(NNC(=O)c2ccncc2)nc(Nc2ccc(Cl)cc2)n1	> 10	–	–	–	–	–	> 10	> 10	> 10	> 10	> 10	> 10	> 10	> 10	> 10	> 10	> 10	> 10	> 10
COc1ccc2nc3ccc(OC)cc3c(SCC3CO3)c2c1 (stereo not given)	–	69.3	33.5	28.6	28.4	28.5	38.1	24.4	29	38.5	> 100	25.8	34.2	43.6	–	> 100	33.5	30.6	30.5
COc1ccc(NS(=O)c2ccc(OC)cc2)cc1 (stereo not given)	> 100	> 100	–	–	83.6	> 100	> 100	> 100	> 100	> 100	> 100	> 100	> 100	82.8	–	–	> 100	> 100	90.9
COc1ccc(/C(C)=N/NC(=O)c2ccncc2)cc1OC	> 10	–	–	–	–	–	> 10	> 10	> 10	> 10	> 10	–	–	> 10	> 10	> 10	> 10	> 10	> 10
O=C(NCC(C(=O)OCc1ccccc1)C(=O)OCc1ccccc1)OCc1ccccc1	> 100	> 100	> 100	> 100	> 100	> 100	–	> 100	> 100	> 100	> 100	> 100	> 100	–	> 100	> 100	> 100	> 100	> 100
Nc1nc(Cl)cc(NCCCCCCCCCCCCNc2cc(Cl)nc(N)n2)n1	–	–	44.5	–	> 100	> 100	75.2	> 100	> 100	–	> 100	> 100	> 100	–	19.3	> 100	3.72	–	> 100
CC(C)(C)c1cc(C(=O)/C=C/c2ccc3c(c2)CCO3)cc(C(C)(C)C)c1O	> 29.5	> 27.6	0.579	4.8	13.1	> 100	–	> 100	5.25	1.05	22.9	> 25.9	> 100	> 100	> 100	> 80.3	6.65	–	> 100
Cc1nn(C(=O)Cc2ccccc2)c2c1C(c1ccccc1[N+](=O)[O-])SC(N)=N2 (stereo not given)	> 100	–	–	> 100	–	–	–	> 100	> 100	–	> 100	> 100	> 100	> 100	–	> 100	> 100	> 100	> 100
CCOC(=O)C(CC(=O)OC)NC(=O)C(CC(=O)OC)NC(=O)C(CC(=O)OC)NC(=O)C(CC(=O)OC)NC(=O)OCc1ccccc1 (stereo not given) (Cbz-D(OMe)D(OMe)D(OMe)D(OMe)-OEt; configuration not given here)	> 100	> 100	> 100	> 100	> 100	–	–	> 100	> 100	–	> 100	> 100	> 100	> 100	> 100	–	> 100	> 100	> 100
